Measurements reported in ChEMBL document CHEMBL6182931, “Chemical Evolution of Aplithianine Class of Serine/Threonine Kinase Inhibitors” (J Med Chem, 2025).
The source made the active and inactive calls. The rule behind the calls is not given here.

system: OVCAR-4; test: Antiproliferative activity against human OVCAR-4 cells assessed as growth inhibition; assay type: functional, cell-based

| SMILES | Activity |
| --- | --- |
| C1=C(C2=CN(c3ncnc4[nH]ccc34)CCS2)CCNC1 | inactive |

system: NCI/ADR-RES; test: Antiproliferative activity against human NCI/ADR-RES cells assessed as growth inhibition; assay type: functional, cell-based

| SMILES | Activity |
| --- | --- |
| C1=C(C2=CN(c3ncnc4[nH]ccc34)CCS2)CCNC1 | inactive |

system: MDA-MB-468; test: Antiproliferative activity against human MDA-MB-468 cells assessed as growth inhibition; assay type: functional, cell-based

| SMILES | Activity |
| --- | --- |
| C1=C(C2=CN(c3ncnc4[nH]ccc34)CCS2)CCNC1 | Active |

system: not listed separately; test: Inhibition of DNAJB1-PKAcalpha (unknown origin) using biotinylated-peptide substrate CREB incubated for 45 mins in presence of ATP and cAMP by ELISA; set-up: species or system Homo sapiens

| SMILES | IC50 |
| --- | --- |
| Cc1noc(C)c1C1=CN(c2ncnc3[nH]cc(C)c23)CCS1 | > 10 µM |
| C[C@H](N)CNC(=O)C1=CN(c2ncnc3[nH]ccc23)CCS1 | 0.18 µM |
| O=C(NC[C@@H]1CCCN1)C1=CN(c2ncnc3[nH]ccc23)CCS1 | 0.35 µM |
| Cc1c[nH]c2ncnc(N3C=C(c4ccnn4C)SCC3)c12 | > 10 µM |
| CC(C)(C)c1cc(N2C=C(c3ccnc4[nH]ccc34)SCC2)ncn1 | 7.9 µM |
| C1=C(c2ccnc3[nH]ccc23)SCCN1c1cc(N2CCOCC2)ncn1 | 0.6 µM |
| C[C@@]1(N)CCCN(C(=O)C2=CN(c3ncnc4[nH]cnc34)CCS2)C1 | 0.062 µM |
| CN[C@H]1CCCN(C(=O)C2=CN(c3ncnc4[nH]cc(C)c34)CCS2)C1 | 0.4 µM |
| Cc1noc(C)c1C1=CN(c2ncnc3[nH]ccc23)CCS1 | > 10 µM |
| C[C@@H](N)CNC(=O)C1=CN(c2ncnc3[nH]ccc23)CCS1 | 0.18 µM |
| Fc1cncnc1N1C=C(c2ccnc3[nH]ccc23)SCC1 | 0.037 µM |
| N[C@H]1CCCN(C(=O)C2=CN(c3ccnc4[nH]ccc34)CCS2)C1 | 0.068 µM |
| NCCNC(=O)C1=CN(c2ncnc3[nH]cnc23)CCS1 | 1.3 µM |
| C1=C(c2cnco2)SCCN1c1ncnc2[nH]cnc12 | 1.8 µM |
| Cc1c[nH]c2nccc(N3C=C(C(=O)N4CCC[C@](C)(N)C4)SCC3)c12 | 0.5 µM |
| N[C@@H]1CCCN(C(=O)C2=CN(c3ncnc4[nH]ccc34)CCS2)C1 | 0.008 µM |
| Cc1ncc(C2=CN(c3ncnc4[nH]cnc34)CCS2)o1 | 5.2 µM |
| NCC1(NC(=O)C2=CN(c3ncnc4[nH]ccc34)CCS2)CCC1 | 0.17 µM |
| Cc1cc(N2C=C(c3ccnc4[nH]ccc34)SCC2)nc(N2CCCCC2)n1 | > 10 µM |
| NCCCCCCNC(=O)C1=CN(c2ncnc3[nH]ccc23)CCS1 | 2.9 µM |
| Cc1c[nH]c2ncnc(N3C=C(c4cnn(C)c4)SCC3)c12 | 5.5 µM |
| CC(=O)NCCNC(=O)C1=CN(c2ncnc3[nH]cnc23)CCS1 | > 10 µM |
| CN(CCN)C(=O)C1=CN(c2ncnc3[nH]ccc23)CCS1 | 0.37 µM |

| SMILES | IC50 |
| --- | --- |
| O=C(N[C@H]1CCCNC1)C1=CN(c2ncnc3[nH]ccc23)CCS1 | 0.066 µM |
| O=C(C1=CN(c2ncnc3[nH]ccc23)CCS1)N1C[C@@H]2CCCN[C@@H]2C1 | 1.1 µM |
| FC(F)(F)COc1cc(N2C=C(c3ccnc4[nH]ccc34)SCC2)ncn1 | 0.82 µM |
| C1=C(c2cc[nH]n2)SCCN1c1ncnc2[nH]cnc12 | > 10 µM |
| Cc1c[nH]c2nccc(N3C=C(C(=O)N4CCC[C@@](C)(N)C4)SCC3)c12 | 0.043 µM |
| C1=C(c2ccncn2)SCCN1c1ccnc2[nH]ccc12 | > 10 µM |
| CC(C)(N)CNC(=O)C1=CN(c2ncnc3[nH]ccc23)CCS1 | 0.38 µM |
| C1=C(c2ccnc3[nH]ccc23)SCCN1c1cc(-c2ccsc2)ncn1 | 2.2 µM |
| N[C@@H]1c2ccccc2C[C@@H]1NC(=O)C1=CN(c2ncnc3[nH]ccc23)CCS1 | 0.41 µM |
| C1=C(c2cccnc2)SCCN1c1ncnc2[nH]ccc12 | > 10 µM |
| CN[C@@H]1CCCN(C(=O)C2=CN(c3ncnc4[nH]cc(C)c34)CCS2)C1 | 0.05 µM |
| C[C@@H]1CCN(C(=O)C2=CN(c3ncnc4[nH]ccc34)CCS2)C[C@@H]1N | 0.06 µM |
| C[C@]1(N)CCCN(C(=O)C2=CN(c3ncnc4[nH]cnc34)CCS2)C1 | 2.2 µM |
| CN[C@H]1CCCN(C(=O)C2=CN(c3ccnc4[nH]ccc34)CCS2)C1 | 0.27 µM |
| Cc1cc(N2C=C(c3ccnc4[nH]ccc34)SCC2)nc(C(C)(C)C)n1 | > 10 µM |
| NCCNC(=O)C1=CN(c2ccnc3[nH]ccc23)CCS1 | 0.16 µM |
| N[C@H]1CCN(C(=O)C2=CN(c3ncnc4[nH]ccc34)CCS2)C1 | 0.5 µM |
| C[C@]1(N)CCCN(C(=O)C2=CN(c3ccnc4[nH]ccc34)CCS2)C1 | 0.42 µM |
| FC(F)(F)c1cc(N2C=C(c3ccnc4[nH]ccc34)SCC2)ncn1 | 2.4 µM |
| NC[C@H](NC(=O)C1=CN(c2ncnc3[nH]ccc23)CCS1)c1ccccc1 | 0.11 µM |
| O=C(N[C@@H]1CCNC1)C1=CN(c2ncnc3[nH]ccc23)CCS1 | 0.38 µM |
| NCCCCNC(=O)C1=CN(c2ncnc3[nH]ccc23)CCS1 | 0.21 µM |

Other lines, results leading:

| IC50 | SMILES |
| --- | --- |
| 0.13 µM | N[C@@H]1CCCC[C@@H]1NC(=O)C1=CN(c2ncnc3[nH]ccc23)CCS1 |
| > 10 µM | Cc1ncoc1C1=CN(c2ncnc3[nH]cc(C)c23)CCS1 |
| 0.64 µM | O=C(N[C@H](c1ccccc1)[C@@H]1CCCN1)C1=CN(c2ncnc3[nH]ccc23)CCS1 |
| 2.9 µM | C1=C(c2cnco2)SCCN1c1ncnc2[nH]ccc12 |
| 5.2 µM | Cc1c[nH]c2ncnc(N3C=C(c4cc[nH]n4)SCC3)c12 |
| 0.23 µM | O=C(C1=CN(c2ncnc3[nH]ccc23)CCS1)N1CCn2ccnc2C1 |
| 0.18 µM | NC1(CNC(=O)C2=CN(c3ncnc4[nH]ccc34)CCS2)CCC1 |
| 2.7 µM | Cn1cc(C2=CN(c3ncnc4[nH]cnc34)CCS2)cn1 |
| 2.3 µM | N[C@@H]1CCCC[C@H]1NC(=O)C1=CN(c2ncnc3[nH]ccc23)CCS1 |
| 0.77 µM | CN[C@H]1CCCN(C(=O)C2=CN(c3ncnc4[nH]cnc34)CCS2)C1 |
| 0.42 µM | CN(C[C@H]1CCCCN1)C(=O)C1=CN(c2ncnc3[nH]ccc23)CCS1 |
| > 10 µM | O=C(NCCNC(=O)c1ccccc1)C1=CN(c2ncnc3[nH]cnc23)CCS1 |
| 0.53 µM | C[C@H](CN)NC(=O)C1=CN(c2ncnc3[nH]ccc23)CCS1 |
| 0.006 µM | C[C@H]1C[C@@H](N)CN(C(=O)C2=CN(c3ncnc4[nH]ccc34)CCS2)C1 |
| 0.28 µM | Cc1c[nH]c2nccc(N3C=C(C(=O)N4CCC[C@H](N)C4)SCC3)c12 |
| 2.6 µM | N[C@H]1CCCC[C@H]1NC(=O)C1=CN(c2ncnc3[nH]ccc23)CCS1 |
| 0.082 µM | O=C(N[C@H](c1ccccc1)[C@H]1CCCN1)C1=CN(c2ncnc3[nH]ccc23)CCS1 |
| 6.9 µM | Cc1noc(C)c1C1=CN(c2ncnc3[nH]cnc23)CCS1 |
| 1.8 µM | Cc1c[nH]c2ncnc(N3C=C(c4cnco4)SCC3)c12 |

| IC50 | SMILES |
| --- | --- |
| 0.013 µM | O=C(N[C@@H](c1ccccc1)[C@@H]1CCCN1)C1=CN(c2ncnc3[nH]ccc23)CCS1 |
| > 10 µM | Cn1nccc1C1=CN(c2ncnc3[nH]ccc23)CCS1 |
| 0.13 µM | N[C@@H]1CCCCN(C(=O)C2=CN(c3ncnc4[nH]ccc34)CCS2)C1 |
| 0.68 µM | O=C(NC[C@H]1CCCCN1)C1=CN(c2ncnc3[nH]ccc23)CCS1 |
| 0.019 µM | N[C@@H]1CCCN(C(=O)C2=CN(c3ccnc4[nH]ccc34)CCS2)C1 |
| 0.53 µM | CN[C@H]1CCCN(C(=O)C2=CN(c3ccnc4[nH]cc(C)c34)CCS2)C1 |
| 0.69 µM | O=C(N[C@@H]1CCCNC1)C1=CN(c2ncnc3[nH]ccc23)CCS1 |
| 7.2 µM | Cn1nccc1C1=CN(c2ncnc3[nH]cnc23)CCS1 |
| 1.1 µM | CCCc1cc2c(N3C=C(c4ccnc5[nH]ccc45)SCC3)ncnc2s1 |
| > 10 µM | Cc1ncc(C2=CN(c3ncnc4[nH]cc(C)c34)CCS2)o1 |
| 0.57 µM | N[C@H]1CCCCN(C(=O)C2=CN(c3ncnc4[nH]ccc34)CCS2)C1 |
| 0.098 µM | N[C@@H]1CCN(C(=O)C2=CN(c3ncnc4[nH]ccc34)CCS2)C1 |
| 0.087 µM | CN[C@@H]1CCCN(C(=O)C2=CN(c3ncnc4[nH]ccc34)CCS2)C1 |
| 0.081 µM | N[C@H]1CCCN(C(=O)C2=CN(c3ncnc4[nH]ccc34)CCS2)C1 |
| 0.068 µM | O=C(N[C@H]1CCNC1)C1=CN(c2ncnc3[nH]ccc23)CCS1 |
| 0.73 µM | CN[C@@H]1CCCN(C(=O)C2=CN(c3ccnc4[nH]cc(C)c34)CCS2)C1 |
| 0.36 µM | NCCCNC(=O)C1=CN(c2ncnc3[nH]ccc23)CCS1 |
| 2 µM | C[C@H]1[C@H](N)CCCN1C(=O)C1=CN(c2ncnc3[nH]ccc23)CCS1 |
| 0.38 µM | O=C(NC[C@H]1CCCN1)C1=CN(c2ncnc3[nH]ccc23)CCS1 |

| IC50 | SMILES |
| --- | --- |
| 0.92 µM | NCCCCCNC(=O)C1=CN(c2ncnc3[nH]ccc23)CCS1 |
| 0.58 µM | O=C(C1=CN(c2ncnc3[nH]ccc23)CCS1)N1CCc2nc[nH]c2C1 |
| 0.037 µM | Cc1c[nH]c2nccc(N3C=C(C(=O)N4CCC[C@@H](N)C4)SCC3)c12 |
| 0.31 µM | O=C(C1=CN(c2ncnc3[nH]ccc23)CCS1)N1C[C@H]2CCCN[C@H]2C1 |
| 2 µM | C1=C(c2cc[nH]n2)SCCN1c1ncnc2[nH]ccc12 |
| 0.11 µM | C[C@@H](CN)NC(=O)C1=CN(c2ncnc3[nH]ccc23)CCS1 |
| 0.33 µM | C1=C(c2ccnc3[nH]ccc23)SCCN1c1cc(OCc2ccccc2)ncn1 |
| 4.5 µM | Cc1ncoc1C1=CN(c2ncnc3[nH]ccc23)CCS1 |
| 0.66 µM | O=C(NC[C@@H]1CCCCN1)C1=CN(c2ncnc3[nH]ccc23)CCS1 |
| > 10 µM | C1=C(c2cccnc2)SCCN1c1ncnc2[nH]cnc12 |
| > 10 µM | Cc1ncc(C2=CN(c3ncnc4[nH]ccc34)CCS2)o1 |
| 0.26 µM | CN[C@@H]1CCCN(C(=O)C2=CN(c3ncnc4[nH]cnc34)CCS2)C1 |
| 1.4 µM | Cc1ncoc1C1=CN(c2ncnc3[nH]cnc23)CCS1 |
| > 10 µM | Cc1c[nH]c2ncnc(N3C=C(c4cccnc4)SCC3)c12 |
| 3 µM | Cc1cc(N2C=C(c3ccnc4[nH]ccc34)SCC2)nc(N(C)C)n1 |
| 0.2 µM | C[C@@H]1[C@H](N)CCCN1C(=O)C1=CN(c2ncnc3[nH]ccc23)CCS1 |
| 0.57 µM | CN[C@@H]1CCCN(C(=O)C2=CN(c3ccnc4[nH]ccc34)CCS2)C1 |
| 0.31 µM | CN[C@H]1CCCN(C(=O)C2=CN(c3ncnc4[nH]ccc34)CCS2)C1 |
| 1.2 µM | CN(C[C@@H]1CCCCN1)C(=O)C1=CN(c2ncnc3[nH]ccc23)CCS1 |

system: SR; test: Antiproliferative activity against human SR cells assessed as growth inhibition; assay type: functional

| SMILES | Activity |
| --- | --- |
| C1=C(C2=CN(c3ncnc4[nH]ccc34)CCS2)CCNC1 | Active |

system: MOLT-4; test: Antiproliferative activity against human MOLT-4 cells assessed as growth inhibition; assay type: functional

| SMILES | Activity |
| --- | --- |
| C1=C(C2=CN(c3ncnc4[nH]ccc34)CCS2)CCNC1 | Active |

system: LOX IMVI; test: Antiproliferative activity against human LOX IMVI cells assessed as growth inhibition; assay type: functional

| SMILES | GI50 |
| --- | --- |
| C1=C(C2=CN(c3ncnc4[nH]ccc34)CCS2)CCNC1 | > 1 µM |
